Test results reported in patent US10550094B2, “Compounds having antioxidant activity against free radicals and anti-inflammatory activity, and corresponding pharmaceutical or cosmetic compositions for skin care” (GIULIANI S.P.A., priority 2015, dated 2020).

What was measured:
[1] = HORAC Hydroxyl radical antioxidant capacity assay
Description: HORAC Assay: Hydroxyl Antioxidant Capacity In Vitro
The commercial kit “Oxiselect Hydroxyl Radical Antioxidant Capacity (HORAC) activity assay” (Cell Biolabs).
The HORAC assay esxpresses the compound antiradical capacity towards the hydroxyl radical OH′ and is based on the oxidation of a fluorescent probe by hydroxyl radicals through a hydrogen transfer process (HAT). Hydroxyl radicals are produced by a radical initiator hydroxyl and by Fenton's reagent, which quenches the fluorescent probe over time. The antioxidants present in the sample block the oxidation by the hydroxyl radical of the fluorescent probe until the antioxidant activity in the sample runs out. The remaining hydroxyl radicals destroy the fluorescence of the fluorescent probe. The antioxidant capacity of the sample is related to the fluorescence decay curve, which usually is represented as the area under the curve (AUC). The AUC is used to quantify the total antioxidant activity of the hydroxyl radical in a sample and is compared to the curve of an antioxidant standard.
The compounds of the invention were tested at the following concentrations: 13.5 μM; 27 μM, 13.5 mM; 27 mM.
For comparison purposes, also samples of the compound monofurfurylidene-2.4-sorbitol defined below by the acronym ARGB11, were in this case tested under the same two concentrations, as a reference compound according to EP0345362 mentioned above as the background art of substances with free radical inhibition activity.

fillagrin (FLG) = test: Skin barrier function protection: filaggrin (FLG) gene expression by qRT-PCR in LPS-treated keratinocytes; format: cell-based, human; details: 13.5 μM, with LPS, Control + LPS = 1.000
Description: The immortalized line of human keratinocytes NCTC2544 is used (Perry V. P. et al., 1957), cultured in sterile flasks ([…]), incubated at 37° C. in a humid atmosphere at 5% CO2 in RPMI culture medium added with bovine fetal serum (FBS), 2 mm glutamine, 1% non-essential amino acids, in the presence of 1% penicillin and streptomycin. The 1:3 split is done every 2 days upon achieving the monolayer by washing with 1×PBS (phosphate buffer without Ca^2+ and Mg^2+) and detachment of cells with a trypsin-EDTA solution at 37° C. for 2 minutes. The cells were kept in culture in 25 cm^3 sterile flasks and incubated at 37° C. in a humid atmosphere at 5% CO2.
Negative control: untreated cells in RPMI medium added to 2.5% fetal bovine serum (FBS), 1% non-essential amino acids (NEAA), 1% of a penicillin and streptomycin mixture (Pen-Strep Mix), and kept in (12 well) 25 cm^2 culture plates at 37° C. and 5% CO2.
Positive control: cells in RPMI medium added to 2.5% fetal bovine serum (FBS), 1% non-essential amino acids (NEAA), 1% of a penicillin and streptomycin mixture (Pen-Strep Mix) and 10 μg/mL LPS (lipopolysaccharide) and kept in ([…]) 25 cm^2 culture plates at 37° C. and 5% CO2 (in the dark).
Study of the Skin Barrier Function Protection
The gene expression of the involucrin (IVL) and fillagrin (FLG) markers was evaluated by relative quantitative RT-PCR (quantitative reverse transcription-polymerase chain reaction-qRT-PCR).
This assay involved three sequential steps: • extraction of total RNA; • retrotranscription in cDNA; • qRT-PCR.
Human keratinocytes NCTC2544 were seeded in 12-well plates at the density of 0.5*10^6 cells/well and incubated until reaching about 80% confluence.
Then, the cells were incubated for 16 and 24 hours with the active compounds to be tested and the respective controls at the following concentrations: 13.5 and 27 μM, and admixed (in the well) with 10 μg/ml LPS.
The dilutions were prepared starting from 1000× stock in DMSO, sterile-filtered and using RPMI medium added to 2.5% fetal bovine serum (FBS), 1% non-essential amino acids (NEAA), 1% of a penicillin and streptomycin mixture (Pen-Strep Mix).
Cells kept in the culture medium alone (RPMI 2.5% FBS) were used as a negative control.
Cells in the culture medium alone (RPMI 2.5% FBS) and treated only with 10 μg/mL LPS were used as a positive control.
After incubation, the RNA was extracted. Total RNA was extracted from NCTC 2544 cells using the commercial kit Ribospin™ (GeneAllBiotechnology Co., LTD).
For RT-PCR amplification, the TaqMan® probe (AppliedBiosystems) method was used. The following TYaqMan probe was used: Hs00846307_s1 (IVL) and Hs00863478_g1 (FLG).
GAPDH: Hs99999905_m1 was used as control gene (housekeeping).
The data obtained were analyzed according to the method of 2-ΔΔCt and so it was possible to calculate the relative values of expression of the gene of interest, normalized compared to the housekeeping gene and calibrated on the control sample (untreated cells): ΔΔCt=ΔCttarget-housekeeping (control)−ΔCttarget-housekeeping (treated cells)
The 2^−ΔΔCt was calculated assuming an amplification efficiency of 100%.

[2] = higher dosages (13.5 μM and 27 μM)
[3] = lower concentrations 13.5 μM and 27 μM

Row | Structure (SMILES) | HORAC (Hydroxyl Radical Antioxidant Capacity) ([1]; 13.5 μM) | HORAC (Hydroxyl Radical Antioxidant Capacity) ([1]; 27 μM) | HORAC (Hydroxyl Radical Antioxidant Capacity) ([1]; 13.5 mM) | HORAC (Hydroxyl Radical Antioxidant Capacity) ([1]; 27 mM) | HORAC activity compared with reference ARGB11 [1, 2] | HORAC activity compared with reference ARGB11 [1, 3] | (FLG) 16 h RQ ± SEM (fillagrin (FLG))
1 | OCC(O)C1OC(c2ccccc2)OC(CO)C1O (centres unmarked) [Sorbityl benzal, sorbityl benzal] | 31.04 μMole GAE/L | 40.110 μMole GAE/L | 308.497 μMole GAE/L | 408.795 μMole GAE/L | fully comparable activity | fully comparable activity | 16.971 ± 2.987
2 | COc1cc(C2OC(CO)C(O)C(C(O)CO)O2)ccc1O (centres unmarked) [Sorbityl vanillinal, sorbityl vanillinal] | 70.29 μMole GAE/L | 115.422 μMole GAE/L | 3544.098 μMole GAE/L | 3261.945 μMole GAE/L | higher activity than the selected reference ARGB11 | higher than the selected reference ARGB11 | 4.408 ± 2.683
3 | O=C(OCC1OC(c2ccco2)OC(C(COC(=O)c2ccccc2)OC(=O)c2ccccc2)C1OC(=O)c1ccccc1)c1ccccc1 (centres unmarked) [Tetrabenzoyl sorbityl furfural, tetrabenzoyl sorbityl furfural] | 37.65 μMole GAE/L | 41.485 μMole GAE/L | 300.856 μMole GAE/L | 211.479 μMole GAE/L | fully comparable activity | fully comparable activity | 22.864 ± 7.892
4 | CC(=O)OCC1OC(c2ccco2)OC(C(COC(C)=O)OC(C)=O)C1OC(C)=O (centres unmarked) [Tetracetyl sorbityl furfural, tetracetyl sorbityl furfural] | 797.50 μMole GAE/L | 171.083 μMole GAE/L | 330.960 μMole GAE/L | 428.775 μMole GAE/L | fully comparable activity | higher than the selected reference ARGB11 | 11.158 ± 5.679
5 | OCC1OC(c2ccco2)OC(CO)C1O (centres unmarked) [Xylitil furfural, xylitil furfural] | 418.69 μMole GAE/L | 524.692 μMole GAE/L | 897.479 μMole GAE/L | 1242.582 μMole GAE/L | higher activity than the selected reference ARGB11 | higher than the selected reference ARGB11 | 64.669 ± 6.930
